Measurements published in patent US7524866B2, “Prevention and treatment of androgen—deprivation induced osteoporosis” (GTx, Inc., priority 2001, dated 2009).

Key:
[1] = system: rat Osteocalcin in serum; assay: Rat Osteocalcin EIA in serum, orchidectomy model (Example 3); assay type: in vivo; conditions: castrated rats
Protocol: Male Sprague-Dawley rats (Harlan Sprague Dawley) were placed on study at 14-weeks of age. They were randomized and divided into five treatment groups: vehicle only (placebo, or P) after sham operation, vehicle only after orchidectomy (Orx), Toremifene (5 mg/kg/day) after sham-operation, and Toremifene after orchidectomy, and 17-β-estradiol (0.5 mg/kg/day) after orchidectomy. Test articles were delivered subcutaneously by Alzet pumps. Pumps were re-implanted every 30 days until the end of the study. Five to six animals from each group were sacrificed after 60 and 120 days of treatment, and femurs were harvested, stripped of soft tissue and muscle, and stored individually in polypropylene vials at −80° C. until analysis of bone density and mechanical strength testing. Additionally, serum was collected on days 15, 30, 60, 90 and 120, to measure markers of bone metabolism and to perform serum chemistry.
After collection, serum was divided into 3 aliquots and stored at −80° C. until analysis. 125 ul for serum biochemistry performed by AniLytics, Gaithersburg, Md. (Bone-Specific Alkaline Phosphatase, Calcium, Phosphorus, Creatinine and Bilirubin). 100 ul for serum Rat Osteocalcin ELISA and Serum RatLaps ELISA for C-terminal telopeptides determination. The rest of the collected serum was left for repeated test if necessary.
Rat Osteocalcin EIA, Biomedical Technologies, MA
This assay is specific for rat Osteocalcin and both carboxylated and decarboxylated rat Osteocalcin are recognized. A monoclonal antibody against the N-terminal region of Osteocalcin is bound to the polystyrene wells. The assay was performed in duplicates. 100 ul of standards, control and 1 to 20 diluted samples were added to appropriate wells and incubated overnight at 4 C. After washing the strips, 100 ul of Goat polyclonal antibody of high specificity for C-terminus of rat Osteocalcin was added and incubated 60 min at 37 C. […] The reaction was stopped, and the absorbance was measured at 450 nm. […] Sample osteocalcin concentrations were determined by interpolation.

[2] = system: Orx rat; assay: Prostate weight in the Orx rat (Example 4); assay type: in vivo; conditions: Orx rat (Orx decreased prostate weight by 77%); FIG. 3
Excerpt: (§1) Eight month-old male Sprague Dawley rats were either sham-operated (SHAM) or orchidectomized (ORX). Treatment began immediately following surgery. The treatment groups were as described in Table 5.

[3] = system: Osteocalcin in rat serum; assay: Osteocalcin (OC) in rat serum (Example 4); assay type: in vivo; conditions: Orx rats; for OC (osteocalcin) levels in serum: 10 days; for inhibitory effect on OC levels: 28 days
Protocol: This assay is specific for rat Osteocalcin and both carboxylated and decarboxylated rat Osteocalcin are recognized. A monoclonal antibody against the N-terminal region of Osteocalcin is bound to the polystyrene wells. The assay was performed in duplicates. 100 ul of standards, control and 1 to 20 diluted samples were added to appropriate wells and incubated overnight at 4 C. After washing the strips, 100 ul of Goat polyclonal antibody of high specificity for C-terminus of rat Osteocalcin was added and incubated 60 min at 37 C. After washing, 100 ul of Donkey anti-goat IgG peroxidase conjugated antibody was added and incubated 60 min at 22 C. The wells were washed and a mix of TMB and peroxide solution was added and incubated 30 min at 22 C in the dark. The reaction was stopped, and the absorbance was measured at 450 nm. A standard curve was constructed using 4-parametric logistic curve fit. Sample osteocalcin concentrations were determined by interpolation. Eight month-old male Sprague Dawley rats were either sham-operated (SHAM) or orchidectomized (ORX). Treatment began immediately following surgery. The treatment groups were as described in Table 5.

[4] = system: RatLaps (CTX) in rat serum; assay: CTX (RatLaps) in rat serum (Example 4); assay type: in vivo; conditions: Orx rats
Protocol: The assay was performed in duplicates, each 20 ul of serum as well as standards and control. Briefly, 100 ul of Biotinylated RatLaps Antigen was incubated 30 min in each well, strips were washed and 20 ul of Standard, Control and unknown samples were added to appropriate wells, followed by 100 ul of primary antibody (polyclonal Ab raised against a synthetic peptide EKSQDGGR specific for a part of the C-terminal telopeptide alpha 1 chain of rat type I collagen). After overnight incubation at 4 C., the wells were washed and 100 ul of Peroxidase conjugated Goat anti-Rabbit IgG Antibody was added to each well and incubated 60 min. After washing the strips 100 ul of the Chromogenic Substrate Solution was added to each well, and after 15 min the reaction was stopped and the absorbance was measured at 450 nm. The means of the duplicate absorbance determination were calculated, and a standard curve was constructed using 4-parametric logistic curve fit. Sample RatLaps concentrations were determined by interpolation.
as §1

[5] = system: orchidectomized rats (ORX); assay: Compression test of the distal femur (Example 4); assay type: in vivo, rat; conditions: for Elastic Modulus / Energy / Maximum Load / Stiffness / Toughness / Ultimate Strength: distal femur
Protocol: Eight month-old male Sprague Dawley rats were either sham-operated (SHAM) or orchidectomized (ORX). Treatment began immediately following surgery. The treatment groups were as described in Table 5. Bone strength was evaluated using a compression test at the vertebral body, a three point bending test at the femoral shaft, a compression test at the distal femur and a cantilever compression test of the femoral neck. Prior to mechanical testing, all samples were thawed in cold saline and carefully cleaned of any remaining adherent soft tissue.

[6] = up to 120 days, Toremifene 5 mg/kg/day, 17-β-estradiol 0.5 mg/kg/day s.c., FIG. 2B
[7] = 28 days, E 0.2 mg/kg/d, 10 mg Tor
[8] = 42 days, E 0.2 mg/kg/d, 10 mg-Tor
[9] = Week 12, 5 mg/kg/d of Toremifene, Estradiol 0.2 mg/kg/d
[10] = week 6, mean, Toremifene 5 mg/kg/d, Estradiol 0.2 mg/kg/d
[11] = week 12, mean, Toremifene 5 mg/kg/d, Estradiol 0.2 mg/kg/d
[12] = week 6, mean, Toremifene 10 mg/kg/d
[13] = week 12, mean, Toremifene 10 mg/kg/d

## C[C@]12CC[C@@H]3c4ccc(O)cc4CC[C@H]3[C@@H]1CC[C@@H]2O [17-β-Estradiol]
[1]; [6]
  serum osteocalcin levels: significantly reduce osteocalcin levels to below that of intact control rats
[2]
  prostate weight: no effect on prostate weight
[3]; E 0.2 mg/kg/d, 5 mg-Tor
  OC (osteocalcin) levels in serum: reversed OC levels to slightly below that of Sham group
[4]; 10 days
  CTX levels in serum: Neither E nor Tor had any effect on CTX
[4]; [7]
  CTX levels in serum: reduced the CTX levels
[4]; [8]
  CTX levels in serum: CTX levels did not change further
[5]; Week 6
  bone strength, compression test of the distal femur: highest values in all groups
[5]; [9]
  bone strength, compression test of the distal femur: highest values at Week 12
[5]; [10]
  Elastic Modulus: 579.48 MPa
  Energy: 66.00 mJ
  Maximum Load: 561.45 N
  Stiffness: 4758.55 N/mm
  Toughness: 0.91 MJ/m^3
  Ultimate Strength: 22.89 N/mm^2
[5]; [11]
  Elastic Modulus: 473.02 MPa
  Energy: 55.94 mJ
  Maximum Load: 487.94 N
  Stiffness: 3714.71 N/mm
  Toughness: 0.78 MJ/m^3
  Ultimate Strength: 20.66 N/mm^2

## CN(C)CCOc1ccc(/C(=C(/CCCl)c2ccccc2)c2ccccc2)cc1 [Toremifene]
[1]; 15 days (p<0.05) and 30 days (p<0.02), Toremifene 5 mg/kg/day s.c., FIG. 2A
  serum osteocalcin levels: significantly reduced the osteocalcin levels in castrated animals to intact control levels
[1]; [6]
  serum osteocalcin levels: significantly reduce osteocalcin levels to below that of intact control rats
[2]
  prostate weight: no effect on prostate weight
[3]; 10 mg-Tor
  OC (osteocalcin) levels in serum: reversed OC levels to slightly below that of Sham group
[3]; E 0.2 mg/kg/d, 5 mg-Tor
  OC (osteocalcin) levels in serum: reversed OC levels to slightly below that of Sham group
[3]; continued at 42 days, 10 mg-Tor
  inhibitory effect on OC levels: more pronounced than both 5 mg Tor and E
[3]; 5 mg-Tor
  inhibitory effect on OC levels: same as E
[4]; 10 days
  CTX levels in serum: Neither E nor Tor had any effect on CTX
[4]; [7]
  CTX levels in serum: reduced the CTX levels
[4]; [8]
  CTX levels in serum: significantly lower CTX levels
[4]; 5 mg Tor
  effect on CTX: not uniform and cannot be interpreted
[5]; Week 6
  bone strength, compression test of the distal femur: bone strength similar to that of Sham-operated animals
[5]; [9]
  bone strength, compression test of the distal femur: maintained similar strength
[5]; Week 12, 10 mg/kg/d Toremifene
  bone strength, compression test of the distal femur: small decrease in strength
[5]; [10]
  Elastic Modulus: 535.08 MPa
  Energy: 56.00 mJ
  Maximum Load: 469.64 N
  Stiffness: 4058.07 N/mm
  Toughness: 0.81 MJ/m^3
  Ultimate Strength: 20.54 N/mm^2
[5]; [12]
  Elastic Modulus: 440.77 MPa
  Energy: 66.19 mJ
  Maximum Load: 447.29 N
  Stiffness: 3549.70 N/mm
  Toughness: 0.91 MJ/m^3
  Ultimate Strength: 18.47 N/mm^2
[5]; [11]
  Elastic Modulus: 379.32 MPa
  Energy: 53.13 mJ
  Maximum Load: 458.79 N
  Stiffness: 3175.07 N/mm
  Toughness: 0.69 MJ/m^3
  Ultimate Strength: 18.09 N/mm^2
[5]; [13]
  Elastic Modulus: 418.05 MPa
  Energy: 45.57 mJ
  Maximum Load: 411.45 N
  Stiffness: 3366.63 N/mm
  Toughness: 0.62 MJ/m^3
  Ultimate Strength: 16.81 N/mm^2
